pEC50, pKi: −log10 of the molar value.
Columns and labels:
[1] = target: T1, Adenosine receptor A3 (Homo sapiens, UniProt P0DMS8); experiment: Affinity towards human Adenosine A3 receptor in CHO cell; type: cell-based
T1 sequence (P0DMS8 whole entry): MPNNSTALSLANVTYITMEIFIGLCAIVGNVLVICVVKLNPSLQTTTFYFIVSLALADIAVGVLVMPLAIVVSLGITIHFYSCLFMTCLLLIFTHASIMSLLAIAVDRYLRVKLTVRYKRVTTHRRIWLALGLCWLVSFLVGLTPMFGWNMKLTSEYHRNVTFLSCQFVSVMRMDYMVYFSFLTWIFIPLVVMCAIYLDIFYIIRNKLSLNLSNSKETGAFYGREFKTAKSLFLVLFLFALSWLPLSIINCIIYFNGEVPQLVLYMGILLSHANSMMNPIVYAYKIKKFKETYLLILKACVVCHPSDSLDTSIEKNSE

[2] = target: T1, Adenosine receptor A3; experiment: Effect on forskolin-stimulated cyclic AMP production in intact chinese hamster ovary (CHO) cell expressing the human Adenosine A3 receptor; type: functional
[3] = target: T1, Adenosine receptor A3; experiment: Affinity for human Adenosine A3 receptor expressed in CHO cell; type: cell-based
[4] = target: Adenosine receptor A3 (Homo sapiens, UniProt P0DMS8, W243A); experiment: Binding affinity towards Adenosine A3 receptor (W243 A mutant receptor)
Sequence of Adenosine receptor A3 (Homo sapiens, UniProt P0DMS8, W243A) (P0DMS8 whole entry W243A): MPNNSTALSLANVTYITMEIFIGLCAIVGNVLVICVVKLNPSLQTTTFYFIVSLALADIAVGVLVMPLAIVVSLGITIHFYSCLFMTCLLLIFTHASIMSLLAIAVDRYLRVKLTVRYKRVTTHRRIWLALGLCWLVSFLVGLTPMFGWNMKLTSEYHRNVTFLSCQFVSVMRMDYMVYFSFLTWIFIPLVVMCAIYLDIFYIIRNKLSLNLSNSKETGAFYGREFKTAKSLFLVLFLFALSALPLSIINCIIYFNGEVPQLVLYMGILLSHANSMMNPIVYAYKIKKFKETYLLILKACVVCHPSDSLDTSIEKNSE

[5] = target: T1, Adenosine receptor A3; experiment: Binding affinity towards human Adenosine A3 receptor wild type
[6] = target: T2, Adenosine receptor A3 (Rattus norvegicus, UniProt P28647); experiment: Binding affinity of adenosine derivative for endogenous rat Adenosine A3 receptor of RBL-2H3
T2 sequence (P28647 whole entry): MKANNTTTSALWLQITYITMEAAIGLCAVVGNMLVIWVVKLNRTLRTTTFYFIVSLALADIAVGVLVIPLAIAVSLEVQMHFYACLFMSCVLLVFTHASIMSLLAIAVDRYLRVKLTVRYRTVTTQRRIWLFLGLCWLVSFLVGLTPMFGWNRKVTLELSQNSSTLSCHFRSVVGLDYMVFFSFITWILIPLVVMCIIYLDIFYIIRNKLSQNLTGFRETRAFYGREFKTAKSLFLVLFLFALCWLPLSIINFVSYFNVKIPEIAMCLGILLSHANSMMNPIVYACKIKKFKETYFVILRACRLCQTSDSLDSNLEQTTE

[7] = target: T2, Adenosine receptor A3; experiment: Binding affinity of adenosine derivative for recombinant rat Adenosine A3 receptor expressed on CHO cell
[8] = target: Adenosine receptor A3 (Homo sapiens, UniProt P0DMS8); experiment: Binding affinity towards Adenosine A3 receptor (W243 mutant receptor)
[9] = target: Adenosine receptor A3 (Homo sapiens, UniProt P0DMS8, H95A); experiment: Binding affinity towards Adenosine A3 receptor (H95A mutant receptor)
Sequence of Adenosine receptor A3 (Homo sapiens, UniProt P0DMS8, H95A) (P0DMS8 whole entry H95A): as the sequence (P0DMS8 whole entry W243A) above, with H95A, A243W counted along it

[10] = target: T1, Adenosine receptor A3; experiment: biochemical
Description: Binding affinity in membrane of CHO cell stably expressing recombinant human Adenosine A3 receptor in the presence of GTPgammaS using [3H]8-ethyl-4-methyl-2-phenyl-(8R)-4,5,7,8-tetrahydro-1H-imidazo[2,1-i]-purin-5-one as radioligand

[11] = target: T1, Adenosine receptor A3; experiment: biochemical; remark: listed apart in the source
Description: Bnding affinity in membrane of CHO cell stably expressing recombinant human Adenosine A3 receptor using [3H]8-ethyl-4-methyl-2-phenyl-(8R)-4,5,7,8-tetrahydro-1H-imidazo[2,1-i]-purin-5-one as radioligand

Row | SMILES | pEC50 [2] | pKi [3] | pKi [4] | pKi [5] | also measured
1 | CNC(=O)[C@H]1O[C@@H](n2cnc3c(NCc4cccc(I)c4)nc(Cl)nc32)[C@@H]2O[C@@H]21 | – | – | – | – | pKi [1]: 5.96
2 | CNC(=O)C12CC1C(n1cnc3c(NCc4cccc(I)c4)ncnc31)C(O)C2O (configuration not stated) | 8.27 | 8.89 | 8.92 | 8.68 | –
3 | OC[C@H]1O[C@@H](n2cnc3c(NCc4cccc(I)c4)nc(Cl)nc32)[C@H](O)[C@@H]1O | – | – | – | – | pKi [6]: 8.57; pKi [7]: 8.80
4 | CCCOC(=O)c1c(-c2ccccc2)nc(CC)c(C(=O)SCC)c1CCC | – | – | – | 6.62 | pKi [6]: 6.45; pKi [8]: 5.67; pKi [7]: 6.63
5 | O=C1NCC[C@@]12O[C@@H](n1cnc3c(NCc4cccc(I)c4)ncnc31)[C@H](O)[C@@H]2O | – | – | – | – | pKi [6]: 7.29; pKi [7]: 7.31
6 | OCC12CC1C(n1cnc3c(NCc4cccc(I)c4)ncnc31)C(O)C2O (configuration not stated) | – | 8.04 | 8.57 | 8.41 | pKi [9]: 7.00
7 | CNC(=O)C12CC1C(n1cnc3c(NC)nc(Cl)nc31)C(O)C2O (configuration not stated) | 8.85 | 8.47 | – | – | –
8 | OCC12CC1C(n1cnc3c(NCc4cccc(I)c4)nc(Cl)nc31)C(O)C2O (configuration not stated) | – | 8.72 | – | 8.77 | pKi [6]: 8.54; pKi [9]: 6.34; pKi [8]: 8.89; pKi [10]: 8.40; pKi [11]: 8.57; pKi [7]: 8.89
9 | Nc1nc(F)nc2c1ncn2[C@@H]1O[C@H](CO)[C@@H](O)[C@H]1O | 5.58 | 7.00 | – | – | –
10 | OCC12CC1C(n1cnc3c(NCc4cccc(I)c4)nc(Cl)nc31)C1OC12 (configuration not stated) | – | 6.24 | 6.31 | 6.23 | –
11 | Nc1nc(Cl)nc2c1ncn2[C@@H]1O[C@H](CO)[C@@H](O)[C@H]1O | 5.79 | 7.06 | – | – | –
12 | OC[C@H]1O[C@@H](n2cnc3c(NC4CCCC4)ncnc32)[C@H](O)[C@@H]1O [N6-CYCLOPENTYLADENOSINE] | 6.62 | – | 6.86 | 6.85 | pKi [9]: 6.21
13 | CCCCn1c(=O)c2c(ncn2[C@@H]2O[C@H](C(=O)NC)[C@@H](O)[C@H]2O)n(CCCC)c1=O | 6.08 | 6.09 | – | – | –
14 | Nc1nc(Cl)nc2c1ncn2C1C(O)C(O)C2(CO)CC12 (configuration not stated) | – | – | 7.34 | 7.08 | –
